Experimental data as given in PMC9133015 (Nature Communications, 2022).
“And” between values parts separate entries of the source, which are not always exact repeats. Equal entries are not always repeated.

Columns and labels:
Assay in all cases: Kinase inhibitor specificity profiling (Reaction Biology Corporation)
Type in all cases: biochemical
Parameters in all cases: % Enzyme Activity (relative to DMSO controls): concentration or dose not given beside the values
[1] = target: T1, panel of 370 protein kinases (Homo sapiens, UniProt O96017); settings: 2 h, kinase CHK2; read-out: % Enzyme Activity (relative to DMSO controls)
T1 construct: purchased Reaction Biology Corporation (assay service)

[2] = target: T2, panel of 370 protein kinases (Homo sapiens, UniProt O14578); settings: kinase STK21/CIT
T2 construct: purchased Reaction Biology Corporation (assay service)

[3] = target: T3, panel of 370 protein kinases (Homo sapiens, UniProt Q05513); settings: 2 h, kinase PKCzeta; read-out: % Enzyme Activity (relative to DMSO controls)
T3 construct: purchased Reaction Biology Corporation (assay service)

[4] = target: T4, panel of 370 protein kinases (Homo sapiens, UniProt Q9BXA6); settings: 2 h, kinase SSTK/TSSK6; read-out: % Enzyme Activity (relative to DMSO controls)
T4 construct: purchased Reaction Biology Corporation (assay service)

[5] = target: T5, panel of 370 protein kinases (Homo sapiens, UniProt Q9UPE1); settings: 2 h, kinase MSSK1/STK23; read-out: % Enzyme Activity (relative to DMSO controls)
T5 construct: purchased Reaction Biology Corporation (assay service)

[6] = target: T6, panel of 370 protein kinases (Homo sapiens, UniProt O00506); settings: 2 h, kinase STK25/YSK1; read-out: % Enzyme Activity (relative to DMSO controls)
T6 construct: purchased Reaction Biology Corporation (assay service)

[7] = target: T7, panel of 370 protein kinases (Homo sapiens, UniProt P42684); settings: 2 h, kinase ABL2/ARG; read-out: % Enzyme Activity (relative to DMSO controls)
T7 construct: purchased Reaction Biology Corporation (assay service)

[8] = target: T8, panel of 370 protein kinases (Homo sapiens, UniProt P34947); settings: 2 h, kinase GRK5; read-out: % Enzyme Activity (relative to DMSO controls)
T8 construct: purchased Reaction Biology Corporation (assay service)

[9] = target: T9, panel of 370 protein kinases (Homo sapiens, UniProt Q13873); settings: kinase BMPR2
T9 construct: purchased Reaction Biology Corporation (assay service)

[10] = target: T10, panel of 370 protein kinases (Homo sapiens, UniProt P36896); settings: 2 h, kinase ALK4/ACVR1B; read-out: % Enzyme Activity (relative to DMSO controls)
T10 construct: purchased Reaction Biology Corporation (assay service)

[11] = target: T11, panel of 370 protein kinases (Homo sapiens, UniProt Q96KB5); settings: 2 h, kinase PBK/TOPK; read-out: % Enzyme Activity (relative to DMSO controls)
T11 construct: purchased Reaction Biology Corporation (assay service)

[12] = target: T12, panel of 370 protein kinases (Homo sapiens, UniProt Q08345); settings: 2 h, kinase DDR1; read-out: % Enzyme Activity (relative to DMSO controls)
T12 construct: purchased Reaction Biology Corporation (assay service)

[13] = target: T13, panel of 370 protein kinases (Homo sapiens, UniProt P50613); settings: 2 h, kinase CDK7/cyclin H; read-out: % Enzyme Activity (relative to DMSO controls)
T13 construct: purchased Reaction Biology Corporation (assay service)

[14] = target: T14, panel of 370 protein kinases (Homo sapiens, UniProt O14757); settings: kinase CHK1
T14 construct: purchased Reaction Biology Corporation (assay service)

[15] = target: T15, panel of 370 protein kinases (Homo sapiens, UniProt Q96RR4); settings: 2 h, kinase CAMKK2; read-out: % Enzyme Activity (relative to DMSO controls)
T15 construct: purchased Reaction Biology Corporation (assay service)

[16] = target: T16, panel of 370 protein kinases (Homo sapiens, UniProt P16591); settings: 2 h, kinase FER; read-out: % Enzyme Activity (relative to DMSO controls)
T16 construct: purchased Reaction Biology Corporation (assay service)

[17] = target: T17, panel of 370 protein kinases (Homo sapiens, UniProt Q13043); settings: kinase MST1/STK4
T17 construct: purchased Reaction Biology Corporation (assay service)

[18] = target: T18, panel of 370 protein kinases (Homo sapiens, UniProt Q9UBS0); settings: 2 h, kinase p70S6Kb/RPS6KB2; read-out: % Enzyme Activity (relative to DMSO controls)
T18 construct: purchased Reaction Biology Corporation (assay service)

[19] = target: T19, panel of 370 protein kinases (Homo sapiens, UniProt Q9UKI8); settings: 2 h, kinase TLK1; read-out: % Enzyme Activity (relative to DMSO controls)
T19 construct: purchased Reaction Biology Corporation (assay service)

[20] = target: T20, panel of 370 protein kinases (Homo sapiens, UniProt P06241); settings: 2 h, kinase FYN; read-out: % Enzyme Activity (relative to DMSO controls)
T20 construct: purchased Reaction Biology Corporation (assay service)

[21] = target: T21, panel of 370 protein kinases (Homo sapiens, UniProt Q6XUX3); settings: 2 h, kinase RIPK5; read-out: % Enzyme Activity (relative to DMSO controls)
T21 construct: purchased Reaction Biology Corporation (assay service)

[22] = target: T22, panel of 370 protein kinases (Homo sapiens, UniProt P49761); settings: 2 h, kinase CLK3; read-out: % Enzyme Activity (relative to DMSO controls)
T22 construct: purchased Reaction Biology Corporation (assay service)

T17 sequence (Q13043 whole entry): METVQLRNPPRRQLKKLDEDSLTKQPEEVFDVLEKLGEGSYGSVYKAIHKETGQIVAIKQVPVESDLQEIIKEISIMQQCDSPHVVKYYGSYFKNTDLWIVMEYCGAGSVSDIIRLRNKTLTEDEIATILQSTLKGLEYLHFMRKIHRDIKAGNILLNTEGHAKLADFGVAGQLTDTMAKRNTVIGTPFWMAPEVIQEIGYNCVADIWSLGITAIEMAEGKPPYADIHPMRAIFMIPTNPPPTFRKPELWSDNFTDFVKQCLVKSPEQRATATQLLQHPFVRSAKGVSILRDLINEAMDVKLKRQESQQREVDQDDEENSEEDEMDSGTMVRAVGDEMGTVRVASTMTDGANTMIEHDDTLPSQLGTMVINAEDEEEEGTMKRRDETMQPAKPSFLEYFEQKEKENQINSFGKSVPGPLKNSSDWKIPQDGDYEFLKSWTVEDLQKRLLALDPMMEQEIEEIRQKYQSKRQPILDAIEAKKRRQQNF
T9 sequence (Q13873 27-1038): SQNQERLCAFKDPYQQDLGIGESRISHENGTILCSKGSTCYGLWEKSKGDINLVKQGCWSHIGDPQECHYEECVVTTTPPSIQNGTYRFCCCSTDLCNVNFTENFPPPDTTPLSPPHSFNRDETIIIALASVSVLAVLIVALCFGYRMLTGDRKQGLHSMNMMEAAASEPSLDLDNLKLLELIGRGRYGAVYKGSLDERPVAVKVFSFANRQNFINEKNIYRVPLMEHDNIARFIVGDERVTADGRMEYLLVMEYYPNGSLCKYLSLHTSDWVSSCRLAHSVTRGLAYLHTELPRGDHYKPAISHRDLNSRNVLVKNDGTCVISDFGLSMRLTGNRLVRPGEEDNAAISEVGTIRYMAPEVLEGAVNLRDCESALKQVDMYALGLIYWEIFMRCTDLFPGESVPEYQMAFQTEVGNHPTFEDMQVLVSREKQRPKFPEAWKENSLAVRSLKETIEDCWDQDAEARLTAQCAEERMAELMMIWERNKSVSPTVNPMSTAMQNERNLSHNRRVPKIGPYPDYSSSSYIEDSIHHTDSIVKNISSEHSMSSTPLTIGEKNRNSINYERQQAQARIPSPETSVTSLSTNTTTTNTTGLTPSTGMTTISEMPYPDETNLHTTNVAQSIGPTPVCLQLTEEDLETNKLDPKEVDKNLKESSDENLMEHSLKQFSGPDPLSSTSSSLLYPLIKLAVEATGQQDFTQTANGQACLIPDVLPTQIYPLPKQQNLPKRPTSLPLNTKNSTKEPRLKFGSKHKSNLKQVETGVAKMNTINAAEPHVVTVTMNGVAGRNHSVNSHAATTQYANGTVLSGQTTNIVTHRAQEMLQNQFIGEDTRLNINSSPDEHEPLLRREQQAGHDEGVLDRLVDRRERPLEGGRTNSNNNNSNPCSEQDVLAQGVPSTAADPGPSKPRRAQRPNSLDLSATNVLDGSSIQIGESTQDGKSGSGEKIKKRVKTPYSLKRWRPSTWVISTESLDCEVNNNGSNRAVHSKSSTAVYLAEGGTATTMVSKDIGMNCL
T14 sequence (O14757 whole entry): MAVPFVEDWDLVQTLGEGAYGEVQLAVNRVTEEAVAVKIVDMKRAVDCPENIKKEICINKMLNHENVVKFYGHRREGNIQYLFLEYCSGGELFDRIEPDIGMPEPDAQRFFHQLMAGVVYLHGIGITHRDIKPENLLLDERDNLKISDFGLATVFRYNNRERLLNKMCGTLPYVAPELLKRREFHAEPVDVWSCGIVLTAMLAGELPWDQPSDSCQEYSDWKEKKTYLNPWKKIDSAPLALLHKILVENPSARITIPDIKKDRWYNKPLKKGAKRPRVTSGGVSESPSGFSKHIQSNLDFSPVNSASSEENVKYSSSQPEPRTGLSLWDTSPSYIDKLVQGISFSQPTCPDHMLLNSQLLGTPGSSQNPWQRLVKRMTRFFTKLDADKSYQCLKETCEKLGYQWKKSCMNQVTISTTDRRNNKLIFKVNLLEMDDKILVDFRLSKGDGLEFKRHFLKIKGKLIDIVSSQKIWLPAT
T2 sequence (O14578 whole entry): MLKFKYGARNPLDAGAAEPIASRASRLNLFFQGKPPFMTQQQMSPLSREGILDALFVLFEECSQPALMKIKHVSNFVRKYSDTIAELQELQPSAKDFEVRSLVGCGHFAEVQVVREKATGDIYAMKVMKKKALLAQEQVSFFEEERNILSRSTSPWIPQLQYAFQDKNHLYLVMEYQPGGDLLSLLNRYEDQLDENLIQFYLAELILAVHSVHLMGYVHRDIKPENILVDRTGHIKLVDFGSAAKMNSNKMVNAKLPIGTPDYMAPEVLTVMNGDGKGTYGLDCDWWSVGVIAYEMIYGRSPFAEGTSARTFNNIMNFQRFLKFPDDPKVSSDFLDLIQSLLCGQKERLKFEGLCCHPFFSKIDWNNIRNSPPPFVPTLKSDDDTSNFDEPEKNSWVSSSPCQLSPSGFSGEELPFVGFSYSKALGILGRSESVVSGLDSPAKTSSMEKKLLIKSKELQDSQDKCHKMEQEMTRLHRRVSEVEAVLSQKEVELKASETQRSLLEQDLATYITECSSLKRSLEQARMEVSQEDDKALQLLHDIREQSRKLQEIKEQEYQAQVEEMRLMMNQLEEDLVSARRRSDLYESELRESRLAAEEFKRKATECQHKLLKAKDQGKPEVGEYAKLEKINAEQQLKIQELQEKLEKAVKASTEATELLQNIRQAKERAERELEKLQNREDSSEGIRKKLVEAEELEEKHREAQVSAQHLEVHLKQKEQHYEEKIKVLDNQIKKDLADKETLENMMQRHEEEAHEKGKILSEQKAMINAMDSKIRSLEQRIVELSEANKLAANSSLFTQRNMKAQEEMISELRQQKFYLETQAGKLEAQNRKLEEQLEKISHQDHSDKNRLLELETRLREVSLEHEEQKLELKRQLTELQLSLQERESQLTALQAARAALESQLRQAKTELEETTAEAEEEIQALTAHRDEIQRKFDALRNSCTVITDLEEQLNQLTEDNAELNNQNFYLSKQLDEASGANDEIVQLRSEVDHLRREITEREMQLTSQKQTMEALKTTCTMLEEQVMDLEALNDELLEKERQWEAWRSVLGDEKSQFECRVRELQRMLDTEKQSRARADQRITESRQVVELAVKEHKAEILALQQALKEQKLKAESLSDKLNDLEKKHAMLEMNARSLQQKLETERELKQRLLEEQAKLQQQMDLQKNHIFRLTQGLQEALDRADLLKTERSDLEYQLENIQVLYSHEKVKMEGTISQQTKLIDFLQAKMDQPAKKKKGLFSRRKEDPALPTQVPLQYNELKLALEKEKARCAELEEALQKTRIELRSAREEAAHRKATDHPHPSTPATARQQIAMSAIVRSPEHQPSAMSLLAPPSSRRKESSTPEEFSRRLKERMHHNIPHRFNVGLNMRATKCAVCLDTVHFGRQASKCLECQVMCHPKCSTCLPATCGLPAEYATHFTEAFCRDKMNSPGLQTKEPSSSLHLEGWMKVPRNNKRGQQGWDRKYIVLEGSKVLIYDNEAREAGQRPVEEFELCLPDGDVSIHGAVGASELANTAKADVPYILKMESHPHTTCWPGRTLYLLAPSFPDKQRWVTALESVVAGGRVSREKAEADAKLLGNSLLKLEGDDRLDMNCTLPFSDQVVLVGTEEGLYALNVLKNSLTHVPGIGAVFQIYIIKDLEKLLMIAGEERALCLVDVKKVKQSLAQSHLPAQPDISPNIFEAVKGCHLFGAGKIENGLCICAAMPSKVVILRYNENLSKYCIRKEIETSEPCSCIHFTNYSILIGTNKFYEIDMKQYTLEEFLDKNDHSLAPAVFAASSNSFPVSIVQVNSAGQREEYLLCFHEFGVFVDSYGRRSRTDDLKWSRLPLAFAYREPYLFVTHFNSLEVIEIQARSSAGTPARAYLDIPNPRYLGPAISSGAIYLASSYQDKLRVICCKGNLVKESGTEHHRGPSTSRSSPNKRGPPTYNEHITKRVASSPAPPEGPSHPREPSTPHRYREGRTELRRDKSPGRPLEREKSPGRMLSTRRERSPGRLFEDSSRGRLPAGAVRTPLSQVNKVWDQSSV
T3 sequence (Q05513 whole entry): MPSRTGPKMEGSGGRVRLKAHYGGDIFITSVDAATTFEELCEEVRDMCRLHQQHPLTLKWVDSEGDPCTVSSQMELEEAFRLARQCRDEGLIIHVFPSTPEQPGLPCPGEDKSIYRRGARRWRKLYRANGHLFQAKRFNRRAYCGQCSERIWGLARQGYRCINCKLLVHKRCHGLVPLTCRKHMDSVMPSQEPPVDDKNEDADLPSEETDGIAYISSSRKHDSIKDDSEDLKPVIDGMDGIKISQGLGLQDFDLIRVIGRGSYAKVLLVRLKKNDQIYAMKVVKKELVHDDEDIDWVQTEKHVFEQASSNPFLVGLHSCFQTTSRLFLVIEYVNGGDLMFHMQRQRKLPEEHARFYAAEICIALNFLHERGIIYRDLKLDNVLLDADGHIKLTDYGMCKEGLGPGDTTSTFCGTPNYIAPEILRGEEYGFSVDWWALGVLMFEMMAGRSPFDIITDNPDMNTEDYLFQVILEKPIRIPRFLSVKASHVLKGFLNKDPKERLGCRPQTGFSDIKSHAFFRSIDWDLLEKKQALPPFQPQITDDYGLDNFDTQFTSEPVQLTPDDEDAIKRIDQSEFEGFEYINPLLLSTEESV
T4 sequence (Q9BXA6 whole entry): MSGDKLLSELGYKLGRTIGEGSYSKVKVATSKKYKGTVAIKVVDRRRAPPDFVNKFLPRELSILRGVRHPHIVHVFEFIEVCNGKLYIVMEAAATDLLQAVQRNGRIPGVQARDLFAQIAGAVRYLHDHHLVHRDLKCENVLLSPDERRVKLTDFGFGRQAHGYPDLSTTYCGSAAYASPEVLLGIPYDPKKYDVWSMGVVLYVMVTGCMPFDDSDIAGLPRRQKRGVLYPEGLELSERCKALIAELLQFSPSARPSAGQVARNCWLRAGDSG

CCN1CCN(C(=O)c2ccc(Nc3ncc(F)c(-c4ccc5nc(N(C)C)sc5c4)n3)nc2)CC1 [YK-2-69]
remaining activity at 1 µM [1]: 97.6%
% Enzyme Activity (relative to DMSO controls) [2]: 95.11% and 94.67%
remaining activity at 1 µM [3]: 83.8%
remaining activity at 1 µM [4]: 107%
remaining activity at 1 µM [5]: 96.3%
remaining activity at 1 µM [6]: 102%
remaining activity at 1 µM [7]: 91.2%
remaining activity at 1 µM [8]: 106%
% Enzyme Activity (relative to DMSO controls) [9]: 80.68% and 76.25%
remaining activity at 1 µM [10]: 102%
remaining activity at 1 µM [11]: 108%
remaining activity at 1 µM [12]: 86.2%
remaining activity at 1 µM [13]: 99.1%
% Enzyme Activity (relative to DMSO controls) [14]: 90.61% and 88.71%
remaining activity at 1 µM [15]: 94.6%
remaining activity at 1 µM [16]: 106%
% Enzyme Activity (relative to DMSO controls) [17]: 107.26% and 103.88%
remaining activity at 1 µM [18]: 99.4%
remaining activity at 1 µM [19]: 98.4%
remaining activity at 1 µM [20]: 104%
remaining activity at 1 µM [21]: 111%
remaining activity at 1 µM [22]: 80.5%
